Experiments:
Format in all cases: in vivo
C57BL/KsJ-db/db mice = test: Blood sugar and triglycerides lowering activity in db/db mice (genetic model)
Description: Mutation in colonies of laboratory animals and different sensitivities to dietary regimens have made the development of animal models with non-insulin dependent diabetes and hyperlipidemia associated with obesity and insulin resistance possible. Genetic models such as db/db and ob/ob (Diabetes, (1982) 31(1): 1-6) mice and zucker fa/fa rats have been developed by the various laboratories for understanding the pathophysiology of disease and testing the efficacy of new antidiabetic compounds (Diabetes, (1983) 32: 830-838; Annu. Rep. Sankyo Res. Lab. (1994). 46 : 1-57). The homozygous animals, C57 BL/KsJ-db/db mice developed by Jackson Laboratory, US, are obese, hyperglycemic, hyperinsulinemic and insulin resistant (J. Clin. Invest., (1990) 85: 962-967), whereas heterozygous are lean and normoglycemic. In db/db model, mouse progressively develops insulinopenia with age, a feature commonly observed in late stages of human type II diabetes when blood sugar levels are insufficiently controlled. The state of pancreas and its course vary according to the models. Since this model resembles that of type II diabetes mellitus, the compounds of the present invention were tested for blood sugar and triglycerides lowering activities.
Male C57BL/KsJ-db/db mice of 8 to 14 weeks age, having body weight range of 35 to 60 grams, bred at Dr. Reddy's Research Foundation (DRF)animal house, were used in the experiment. The mice were provided with standard feed (National Institute of Nutrition (NIN), Hyderabad, India) and acidified water, ad libitum. The animals having more than 350 mg/dl blood sugar were used for testing. The number of animals in each group was 4.
Test compounds were suspended on 0.25% carboxymethyl cellulose and administered to test group at a dose of 0.1 mg to 30 mg/kg through oral gavage daily for 6 days. The control group received vehicle (dose 10 ml/kg). On 6th day the blood samples were collected one hour after administration of test compounds/vehicle for assessing the biological activity.
The random blood sugar and triglyceride levels were measured by collecting blood (100 μl) through orbital sinus, using heparinised capillary in tubes containing EDTA which was centrifuged to obtain plasma. The plasma glucose and triglyceride levels were measured spectrometrically, by glucose oxidase and glycerol-3-PO4 oxidase/peroxidase enzyme (Dr. Reddy's Lab. Diagnostic Division Kits, Hyderabad, India) methods respectively.
The blood sugar and triglycerides lowering activities of the test compound was calculated according to the formula.
(§1) Formulae for Calculation: • 1. Percent reduction in Blood sugar/triglycerides/total cholesterol/body weight were calculated according to the formula: • Percent reduction [formula] OC=Zero day control group value OT=Zero day treated group value TC=Test day control group value TT=Test day treated group value

[1] = test system: hypercholesterolemic Sprague Dawley rats; test: Plasma triglyceride and cholesterol lowering activity in hypercholesterolemic rat models; settings: 1 mg/kg orally for 3 days; for HDL (%) ↑: increase; for Total Cholesterol (%) ↓ / Triglyceride (%) ↓ / LDL (%) ↓ / VLDL (%) ↓: reduction; for LDL (%) ↓: LDL calculated from total cholesterol; for LDL (%) ↓ / VLDL (%) ↓: HDL and triglyceride; for VLDL (%) ↓: VLDL calculated from total cholesterol
Method: Male Sprague Dawley rats (NIN stock) were bred in DRF animal house. Animals were maintained under 12 hour light and dark cycle at 25±1° C. Rats of 180 -200 gram body weight range were used for the experiment. Animals were made hypercholesterolemic by feeding 2% cholesterol and 1% sodium cholate mixed with standard laboratory chow [National Institute of Nutrition (NIN), Hyderabad, India] for 6 days. Throughout the experimental period the animals were maintained on the same diet (Petit, D., Bonnefis, M. T., Rey, C and Infante, R. Effects of ciprofibrate on liver lipids and lipoprotein synthesis in normo- and hyperlipidemic rats. Atherosclerosis. 1988. 74:215-225).
The test compounds were administered orally at a dose 0.1 to 30 mg/kg/day for 3 days. Control group was treated with vehicle alone (0.25% Carboxymethylcellulose; dose 10 ml/kg).
The blood samples were collected in fed state 1 hour after drug administration on 0 and 3 day of compound treatment. The blood was collected from the retro-orbital sinus through heparinised capillary in EDTA containing tubes. After centrifugation, plasma sample was separated for total cholesterol, HDL and triglyceride estimations. Measurement of plasma triglyceride, total cholesterol and HDL were done using commercial kits (Dr. Reddy's Laboratory, Diagnostic Division, India). LDL and VLDL cholesterol were calculated from the data obtained for total cholesterol, HDL and triglyceride. The reduction of various parameters examined are calculated according to the formula.
as §1
2. LDL and VLDL cholesterol levels were calculated according to the formula: [formula] [formula]

[2] = test system: cholesterol fed Syrian Hamsters; test: Body weight reducing effect in cholesterol fed hamsters; settings: 10 mg/kg/day orally for 15 days
Method: Male Syrian Hamsters were procured from NIN, Hyderabad, India. Animals were housed at DRF animal house under 12 hour light and dark cycle at 25±1° C. with free access to food and water. Animals were maintained with 1% cholesterol containing standard laboratory chow (NIN) from the day of treatment.
The test compounds were administered orally at 1 to 30 mg/kg/day dose for 15 days. Control group animals were treated with vehicle (Mill Q water, dose 10 ml/kg/day). Body weights were measured on every 3rd day.
as §1

[3] = test system: Swiss albino mice and Guinea pigs; test: Plasma triglyceride and total cholesterol lowering activity in Swiss albino mice and Guinea pigs; settings: species (Swiss albino mice or Guinea pigs) not given
Method: Male Swiss albino mice (SAM) and male Guinea pigs were obtained from NIN and housed in DRF animal house. All these animals were maintained under 12 hour light and dark cycle at 25±1° C. Animals were given standard laboratory chow (NIN, Hyderabad, India) and water, ad libitum. SAM of 20-25 g body weight range and Guinea pigs of 500-700 g body weight range were used (Oliver, P., Plancke, M. O., Marzin, D., Clavey, V., Sauzieres, J and Fruchart, J. C. Effects of fenofibrate, gemfibrozil and nicotinic acid on plasma lipoprotein levels in normal and hyperlipidemic mice. Atherosclerosis. 1988. 70: 107-114).
The test compounds were administered orally to Swiss albino mice at 0.3 to 30 mg/kg/day dose for 6 days. Control mice were treated with vehicle (0.25% Carboxymethylcellulose; dose 10 ml/kg). The test compounds were administered orally to Guinea pigs at 0.3 to 30 mg/kg/day dose for 6 days. Control animals were treated with vehicle (0.25% Carboxymethylcellulose; dose 5 ml/kg).
The blood samples were collected in fed state 1 hour after drug administration on 0 and 6 day of treatment. The blood was collected from the retro-orbital sinus through heparinised capillary in EDTA containing tubes. After centrifugation, plasma sample was separated for triglyceride and total cholesterol (Wieland, 0. Methods of Enzymatic analysis. Bergermeyer, H. O., Ed., 1963. 211-214; Trinder, P. Ann. Clin. Biochem. 1969. 6: 24-27). Measurement of plasma triglyceride, total cholesterol and HDL were done using commercial kits (Dr. Reddy's Diagnostic Division, Hyderabad, India).
as §1

[4] = 3 mg/kg oral gavage daily for 6 days
[5] = 10 mg/kg oral gavage daily for 6 days

## CCCCOC(Cc1ccc(OCCN2CCOc3ccccc32)cc1)C(=O)[O-].[Na+] (stereo not shown) [Example 50, 3-[4-[2-(2,3-Dihydro-1,4-benzoxazin-4-yl)ethoxy]phenyl]-2-butoxypropanoic acid, sodium salt]
C57BL/KsJ-db/db mice; [4]
  Reduction in Blood Glucose Level (%): 45%
  Triglyceride Lowering (%): 23%

## CCOC(Cc1ccc2cc(OCCN3CCSc4ccccc43)ccc2c1)C(=O)[O-].[Na+] (stereo not shown) [Example 44]
C57BL/KsJ-db/db mice; [5]
  Reduction in Blood Glucose Level (%): 47%
  Triglyceride Lowering (%): 74%
[1]
  HDL (%) ↑: 46%
  Total Cholesterol (%) ↓: 42%
  Triglyceride (%) ↓: 50%
  LDL (%) ↓: 44%
  VLDL (%) ↓: 53%

## CCOC(Cc1ccc(OCCN2CCOc3ccccc32)cc1)C(=O)[O-].[Na+] (stereo not shown) [Example 27, 3-[4-[2-(2,3-Dihydro-1,4-benzoxazin-4-yl)ethoxy]phenyl]-2-ethoxypropanoic acid, sodium salt]
[2]
  Body weight Reduction (%): 12%
[1]
  HDL (%) ↑: 37%
  Total Cholesterol (%) ↓: 57%
  Triglyceride (%) ↓: 43%
  LDL (%) ↓: 58%
  VLDL (%) ↓: 79%

## CCOC(Cc1ccc(OCCN2CCSc3ccccc32)cc1)C(=O)[O-].[Na+] (stereo not shown) [Example 30, 3-[4-[2-(2,3-Dihydro-1,4-benzothiazin-4-yl)ethoxy]phenyl]-2-ethoxypropanoic acid, sodium salt]
[2]
  Body weight Reduction (%): 18%

## CCOC(Cc1ccc(OCCN2CCOc3ccccc32)cc1)C(N)=O (racemic) [Example 33, 3-[4-[2-(2,3-Dihydro-1,4-benzoxazin-4-yl)ethoxy]phenyl]-2-ethoxypropanamide]
[3]; 3 mg/kg orally for 6 days
  Triglyceride Lowering (%): 55%

## CCOC(Cc1ccc(OCC2CN(Cc3ccccc3)c3ccccc3O2)cc1)C(=O)[O-].[Na+] (stereo not shown) [Example 63, 3-[4-(4-Benzyl-3,4-dihydro-2H-1,4-benzoxazin-2-yl)methoxyphenyl]-2-ethoxypropanoic acid, sodium salt]
[3]; 3 mg/kg orally for 6 days
  Triglyceride Lowering (%): 57%

## CCOC(Cc1ccc2cc(OCCN3CCSc4ccccc43)ccc2c1)C(=O)O (racemic) [Example 43, 3-[6-[2-(2,3-Dihydro-1,4-benzothiazin-4-yl)ethoxy]naphthyl]-2-ethoxypropanoic acid]
[3]; 3 mg/kg orally for 6 days
  Triglyceride Lowering (%): 49%

## CCOC(Cc1ccc(OCCN2C(=O)COc3ccccc32)cc1)C(=O)O (racemic) [Example 41, 3-[4-[2-(3-Oxo-2H-1,4-benzoxazin-4-yl)ethoxy]phenyl]-2-ethoxypropanoic acid]
C57BL/KsJ-db/db mice; [4]
  Reduction in Blood Glucose Level (%): 53%
  Triglyceride Lowering (%): 27%
[3]; 10 mg/kg orally for 6 days
  Triglyceride Lowering (%): 54%

— US6846824B2, “Bicyclic compounds and their use in medicine; process for their preparation and pharmaceutical compositions containing them” (Dr. Reddy's Laboratories Ltd., priority 1997, dated 2005)
